# Assay results reported in publication PMC6973051, “Proline‐Rich Peptides with Improved Antimicrobial Activity against E. coli, K. pneumoniae, and A. baumannii” (Chemmedchem, 2019).
# Where two headings read alike, the source gives them in different places. Ends that are not written are not given here.
# Tested on: E. coli BW25113
# Assay type: cell-based, Escherichia coli
# Excerpt: The following bacterial strains were used: Escherichia coli BW25113, E. coli BW25113ΔsbmA (JW0368‐1, KEIO collection21); Acinetobacter baumannii ATCC 19606, Klebsiella pneumoniae ATCC 700603, Pseudomonas aeruginosa ATCC 27853 and Staphylococcus aureus ATCC 25923. The pathogenic E. coli EURL‐VTEC A07, E. coli EURL‐VTEC C07, E. coli SSI‐NN14, E. coli EA22, E. coli SSI‐OO15 and E. coli C679‐12 strains were generously provided by the European Union Reference Laboratory for E. coli, Department of Food Safety, Nutrition and Veterinary Public Health, Istituto Superiore di Sanità, Rome, Italy. All the strains were grown overnight in Müller‐Hinton broth (MHB, Difco) at 37 °C, with shaking (140 rpm). The day after, the overnight bacterial cultures were diluted approx. 1 : 40 in fresh MHB and incubated at 37 °C with shaking (140 rpm) until an OD600nm of ≈0.3 was reached. E. coli BW25113ΔsbmA was grown in the presence of 50 μg mL^−1 kanamycin.
# Peptides were diluted in 100 μL of MHB to the concentration of 128 μM, dispensed in the first wells of a 96‐wells microtiter plate (round‐bottom) and serially two‐fold diluted with MHB into successive wells in a final volume of 50 μl. Subsequently, 50 μL of a bacterial suspension (5×10^5 CFU mL^−1) were added to each well, halving the final concentration of bacteria and peptides. Bacteria were added to MHB only as bacterial growth‐control, whereas 100 μl of MHB were used to check the medium sterility. The plate was incubated overnight at 37 °C (≈18 hours) and sealed with parafilm to minimise evaporation. The MIC was calculated as the first clear well without bacterial growth. If barely detectable growth was present, the OD600nm of the plate was measured by a multiplate reader Tecan (software Sunrise). The MIC was then calculated as the well whose OD620 was≤1 % of that of the untreated growth control.
Substance,"MIC (BW25113, 18 h) [µM]","MIC (single-substitution library by SPOT‐synthesis (unpurified), MHB, ≈18 hours, 37 °C, median of n≥3) [µM]"
RERPPIRRPPIRPPFYPG-NH2 (C-terminus assumed) [F2E],>64,–
RFRPPIRRSPIRPPFYPG-NH2 (C-terminus assumed) [P9S],64,–
RFRPPIRSPPIRPPFYPG-NH2 [R8S],>64,–
RFRPPIRRPPIRPFFYPG-NH2 [P14F],32,–
RFRPPIRRPPPRPPFYPG-NH2 (C-terminus assumed) [I11P],>64,–
RFRPPIRRPPIRPEFYPG-NH2 [P14E],>64,–
RFRPPIRRGPIRPPFYPG-NH2 (C-terminus assumed) [P9G],>64,–
RFRPPRRRPPIRPPFYPG-NH2 (C-terminus assumed) [I6R],16,–
RFRPPIRGPPIRPPFYPG-NH2 [R8G],>64,–
RFRPPIRRPPIRPPFYEG-NH2 [P17E],>64,–
RFRPPIRRPAIRPPFYPG-NH2 (C-terminus assumed) [P10A],>64,–
RWRRPIRRRPIRPPFYWG-NH2 [281 (SPOT form)],4,–
RFRGPIRRPPIRPPFYPG-NH2 (C-terminus assumed) [P4G],8,–
RFRPPIRRPPIFPPFYPG-NH2 [R12F],>64,–
RFRPPIRRPPIRPSFYPG-NH2 [P14S],64,–
RPRPPIRRPPIRPPFYPG-NH2 (C-terminus assumed) [F2P],64,–
RFRPPIRRPPIRPPFYRG-NH2 [258 (SPOT form)],8,–
RFRPPIGRPPIRPPFYPG-NH2 [R7G],>64,–
RFRPPISRPPIRPPFYPG-NH2 [R7S],>64,–
RFREPIRRPPIRPPFYPG-NH2 (C-terminus assumed) [P4E],64,–
RFRPPIRPPPIRPPFYPG-NH2 [R8P],>64,–
RWRRPIRRRPIRPPFWRG-NH2 [291 (SPOT form)],4,–
RFRPPIRRPRIRPPFYPG-NH2 [P10R],>64,–
RFRPPIRRPPIEPPFYPG-NH2 [R12E],>64,–
RFRPPIRRPPFRPPFYPG-NH2 (C-terminus assumed) [I11F],32,–
RFRPPIRRPPERPPFYPG-NH2 (C-terminus assumed) [I11E],>64,–

Substance,"MIC (BW25113, 18 h) [µM]","MIC (single-substitution library by SPOT‐synthesis (unpurified), MHB, ≈18 hours, 37 °C, median of n≥3) [µM]"
RFRPPIRRFPIRPPFYPG-NH2 (C-terminus assumed) [P9F],16,–
RFRPPIRRPPIRPGFYPG-NH2 [P14G],>64,–
RFRPPIRRPPIRPPFEPG-NH2 [Y16E],>64,–
RFRPPIRRRPIRPPFYPG-NH2 (C-terminus assumed) [P9R],8,–
RFRPPIFRPPIRPPFYPG-NH2 [R7F],32,–
RFRPPIRRPPIRPPPYPG-NH2 (C-terminus assumed) [F15P],>64,–
RFRPPIRRPPIRPPFYGG-NH2 [P17G],16,–
RFEPPIRRPPIRPPFYPG-NH2 [R3E],>64,–
RFRPPIRRPPGRPPFYPG-NH2 (C-terminus assumed) [I11G],>64,–
RFRPPIRRPPIRRPFYPG-NH2 [P13R],64,–
RFRPPIRAPPIRPPFYPG-NH2 [R8A],>64,–
RFRPPFRRPPIRPPFYPG-NH2 (C-terminus assumed) [I6F],16,–
RFRPPIRRPPIRPPFPPG-NH2 [Y16P],64,–
RFRPPIRRWPIRPPFYPG-NH2 (C-terminus assumed) [P9W],16,–
RFRPPIRRPPIWPPFYPG-NH2 [R12W],>64,–
RFRPPIRRPPIRPPFYSG-NH2 [P17S],16,–
RFRPPIRRPSIRPPFYPG-NH2 [P10S],64,–
RFRPPIRRPPIRGPFYPG-NH2 [P13G],>64,–
RFRPPSRRPPIRPPFYPG-NH2 (C-terminus assumed) [I6S],64,–
RFRPPIRRPPIRPPFSPG-NH2 [Y16S],>64,–
RFRPPIRRPPIRPPFGPG-NH2 [Y16G],>64,–
RFRPPIRRPPIRFPFYPG-NH2 [P13F],32,–
RFAPPIRRPPIRPPFYPG-NH2 [R3A],64,–
FFRPPIRRPPIRPPFYPG-NH2 [R1F],64,–
RFRPSIRRPPIRPPFYPG-NH2 (C-terminus assumed) [P5S],64,–
RFRPPIREPPIRPPFYPG-NH2 [R8E],>64,–

Substance,"MIC (BW25113, 18 h) [µM]","MIC (single-substitution library by SPOT‐synthesis (unpurified), MHB, ≈18 hours, 37 °C, median of n≥3) [µM]"
RFRPPIRRPPIRPRFYPG-NH2 [P14R],32,–
RFRPPIRRPPIRPPRYPG-NH2 (C-terminus assumed) [F15R],32,–
RFRPPIRRPPIRWPFYPG-NH2 [P13W],16,–
RFRPPGRRPPIRPPFYPG-NH2 (C-terminus assumed) [I6G],>64,–
RFRPPIRFPPIRPPFYPG-NH2 [R8F],>64,–
RFRPPWRRPPIRPPFYPG-NH2 (C-terminus assumed) [I6W],8,–
RFRPPIRRPPIRPPEYPG-NH2 (C-terminus assumed) [F15E],>64,–
RFRPRIRRPPIRPPFYPG-NH2 (C-terminus assumed) [P5R],16,–
RFRPPIRRPPRRPPFYPG-NH2 (C-terminus assumed) [I11R],>64,–
RFGPPIRRPPIRPPFYPG-NH2 [R3G],64,–
RFRPPIRRPPIRPPSYPG-NH2 (C-terminus assumed) [F15S],64,–
RFRPAIRRPPIRPPFYPG-NH2 (C-terminus assumed) [P5A],64,–
RARPPIRRPPIRPPFYPG-NH2 (C-terminus assumed) [F2A],32,–
RFRPPIRRPWIRPPFYPG-NH2 [P10W],32,–
RFRPPERRPPIRPPFYPG-NH2 (C-terminus assumed) [I6E],>64,–
EFRPPIRRPPIRPPFYPG-NH2 [R1E],>64,–
RFRPPIRREPIRPPFYPG-NH2 (C-terminus assumed) [P9E],>64,–
RFRPPIRRPPIRPPAYPG-NH2 (C-terminus assumed) [F15A],64,–
RFRPPIRWPPIRPPFYPG-NH2 [R8W],32,–
PFRPPIRRPPIRPPFYPG-NH2 [R1P],64,–
RFRPEIRRPPIRPPFYPG-NH2 (C-terminus assumed) [P5E],>64,–
RFRPPIERPPIRPPFYPG-NH2 [R7E],>64,–
RFRFPIRRPPIRPPFYPG-NH2 (C-terminus assumed) [P4F],8,–
RFRPPIRRPPISPPFYPG-NH2 [R12S],>64,–
RFRPPIRRPPWRPPFYPG-NH2 (C-terminus assumed) [I11W],32,–
RFRRPIRRPPIRPPFYPG-NH2 (C-terminus assumed) [P4R],4,–

Substance,"MIC (BW25113, 18 h) [µM]","MIC (single-substitution library by SPOT‐synthesis (unpurified), MHB, ≈18 hours, 37 °C, median of n≥3) [µM]"
RFRPPIRRPPIRPPFRPG-NH2 [Y16R],16,–
SFRPPIRRPPIRPPFYPG-NH2 [R1S],>64,–
RFRPPIRRPPIAPPFYPG-NH2 [R12A],>64,–
RRRPPIRRPPIRPPFYPG-NH2 (C-terminus assumed) [F2R],16,–
RFRPPPRRPPIRPPFYPG-NH2 (C-terminus assumed) [I6P],>64,–
RGRPPIRRPPIRPPFYPG-NH2 (C-terminus assumed) [F2G],16,–
RFRPPIRRPPIRPPFFPG-NH2 [Y16F],16,–
RFRPPIRRPEIRPPFYPG-NH2 (C-terminus assumed) [P10E],>64,–
RFRPPIRRPPIRPPFYFG-NH2 [P17F],16,–
RFRPPIRRPPIRPWFYPG-NH2 [P14W],16,–
RFRPPIRRPGIRPPFYPG-NH2 [P10G],>64,–
RFRPPIRRPPIRPPGYPG-NH2 (C-terminus assumed) [F15G],32,–
GFRPPIRRPPIRPPFYPG-NH2 [R1G],32,–
RFRWPIRRPPIRPPFYRG-NH2 [272 (SPOT form)],4,–
RFFPPIRRPPIRPPFYPG-NH2 [R3F],64,–
RWRWPIRRPPIRPPFYRG-NH2 [278 (SPOT form)],4,–
RFRPPIRRAPIRPPFYPG-NH2 (C-terminus assumed) [P9A],>64,–
"RFRPPIRRPPIRPPFYPG-NH2 [wt (SPOT form), reference compound]",32,16
RFRAPIRRPPIRPPFYPG-NH2 (C-terminus assumed) [P4A],24,–
RFRPPIRRPPIPPPFYPG-NH2 [R12P],>64,–
AFRPPIRRPPIRPPFYPG-NH2 [R1A],48,–
RFRPGIRRPPIRPPFYPG-NH2 (C-terminus assumed) [P5G],>64,–
WFRPPIRRPPIRPPFYPG-NH2 [R1W],32,–
RFRPPIRRPPIGPPFYPG-NH2 [R12G],>64,–
RFRPPIRRPPIRAPFYPG-NH2 [P13A],>64,–
